Results as given in US5451506A, “Oncostatin M and novel compositions having anti-neoplastic activity” (Oncogen Limited Partnership, priority 1993, dated 1995).

T1: Oncostatin M receptor on A375 or A549 cells (Homo sapiens, UniProt P40189+Q99650)
T1 construct: endogenous in cells; host or cells: A375 or A549 cells (intact monolayers)
T1 sequence (Q99650 28-979): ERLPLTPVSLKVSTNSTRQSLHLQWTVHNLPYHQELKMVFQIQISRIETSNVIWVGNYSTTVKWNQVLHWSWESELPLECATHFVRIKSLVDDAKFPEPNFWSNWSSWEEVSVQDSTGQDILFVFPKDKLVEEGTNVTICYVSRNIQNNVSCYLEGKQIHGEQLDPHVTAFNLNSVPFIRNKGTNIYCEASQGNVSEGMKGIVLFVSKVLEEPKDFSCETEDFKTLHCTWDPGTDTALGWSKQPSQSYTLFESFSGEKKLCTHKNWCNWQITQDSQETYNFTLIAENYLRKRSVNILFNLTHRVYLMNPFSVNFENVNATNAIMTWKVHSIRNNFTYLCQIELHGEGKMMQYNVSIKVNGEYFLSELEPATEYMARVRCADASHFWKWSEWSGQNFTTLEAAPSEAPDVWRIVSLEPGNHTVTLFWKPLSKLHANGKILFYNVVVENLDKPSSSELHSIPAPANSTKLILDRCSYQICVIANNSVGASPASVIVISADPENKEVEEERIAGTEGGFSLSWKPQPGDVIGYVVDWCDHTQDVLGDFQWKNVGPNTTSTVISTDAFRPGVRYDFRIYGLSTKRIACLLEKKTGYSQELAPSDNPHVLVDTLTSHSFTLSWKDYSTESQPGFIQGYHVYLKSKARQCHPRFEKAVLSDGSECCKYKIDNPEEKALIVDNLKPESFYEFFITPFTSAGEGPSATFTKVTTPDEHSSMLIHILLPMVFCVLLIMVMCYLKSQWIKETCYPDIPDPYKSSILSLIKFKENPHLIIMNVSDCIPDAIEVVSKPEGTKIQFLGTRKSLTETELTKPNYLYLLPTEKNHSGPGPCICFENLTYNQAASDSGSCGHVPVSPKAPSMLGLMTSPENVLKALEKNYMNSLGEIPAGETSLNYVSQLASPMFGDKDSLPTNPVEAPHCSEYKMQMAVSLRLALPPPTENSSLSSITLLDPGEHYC
T1 sequence (P40189 23-918): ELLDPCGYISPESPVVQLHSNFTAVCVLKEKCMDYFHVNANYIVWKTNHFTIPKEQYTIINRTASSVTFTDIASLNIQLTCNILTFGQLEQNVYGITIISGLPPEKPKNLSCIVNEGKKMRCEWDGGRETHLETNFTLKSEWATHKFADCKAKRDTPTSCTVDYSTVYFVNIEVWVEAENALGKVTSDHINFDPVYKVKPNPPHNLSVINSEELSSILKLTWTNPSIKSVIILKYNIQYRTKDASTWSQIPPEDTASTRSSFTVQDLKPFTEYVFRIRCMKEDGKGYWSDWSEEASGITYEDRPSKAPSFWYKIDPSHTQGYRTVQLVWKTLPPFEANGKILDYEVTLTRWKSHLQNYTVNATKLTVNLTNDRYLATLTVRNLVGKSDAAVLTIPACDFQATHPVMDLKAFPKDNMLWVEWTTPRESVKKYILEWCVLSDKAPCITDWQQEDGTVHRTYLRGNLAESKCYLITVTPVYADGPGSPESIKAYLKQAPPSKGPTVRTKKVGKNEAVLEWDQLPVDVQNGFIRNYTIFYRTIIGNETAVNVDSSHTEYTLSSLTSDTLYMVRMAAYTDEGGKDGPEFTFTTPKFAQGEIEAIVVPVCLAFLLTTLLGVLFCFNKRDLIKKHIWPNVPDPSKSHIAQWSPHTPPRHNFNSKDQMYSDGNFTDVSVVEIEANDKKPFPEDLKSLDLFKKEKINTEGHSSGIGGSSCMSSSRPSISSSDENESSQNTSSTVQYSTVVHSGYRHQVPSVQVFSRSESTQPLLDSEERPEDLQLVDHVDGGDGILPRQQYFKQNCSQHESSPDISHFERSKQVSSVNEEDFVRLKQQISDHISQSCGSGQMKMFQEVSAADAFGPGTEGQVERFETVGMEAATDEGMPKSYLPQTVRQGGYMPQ

B1: PBL-derived Oncostatin M: Oncostatin M isolated from conditioned medium of activated human T-lymphoblasts, approximately 80% pure (protein, UniProt P13725 26-221, looked up)
Oncostatin-M: AAIGSCSKEYRVLLGQLQKQTDLMQDTSRLLDPYIRIQGLDVPKLREHCRERPGAFPSEETLRGLGRRGFLQTLNATLGCVLHRLADLEQRLPKAQDLERSGLNIEDLEKLQMARPNILGLRNNIYCMAQLLDNSDTAEPTKAGRGASQPPTPTPASDAFQRKLEGCRFLHGYHRFMHSVGRVFSKWGESPNRSRR

Columns and labels:
A375 melanoma cells = assay: Cell growth modulatory assay using 3H-thymidine incorporation into DNA (GIA); assay type: cell-based, human; design: Observed % Inhibition of 3H-TdR Incorporation: concentration or dose not given beside the values; conditions: A375 Cells
Protocol: (§1) The assays were performed in 96 flat well plates (Costar 3596). Human melanoma cells (A375) (3×10^3 /100 μl) or cells from another cell line of interest were at an appropriate cell density used. Cells in 100 μl growth medium were placed in each well. Three hours later, 100 μl of test sample in growth medium was added to each well. Plates were incubated at 37° C. for 3 days. Then 25 μl (0.5 μCi) of a solution of ^3 H-thymidine (specific activity 27 μCi/μg) was added to each well for the final 6 hours of incubation. The cells were then transferred to glass filter strips using a multiwell harvester (PHD Cell Harvester, Cambridge Technology, Inc.). The filters were transferred to scintillation vials. Two ml of scintillation fluid (ScientiVerse II, Fisher Scientific Co.) was added and the samples counted in a scintillation counter to quantitate ^3 H-thymidine incorporation.

MCF-7 breast tumor cells = assay: Inhibition of 3H-TdR incorporation, Oncostatin M and TNF-α; assay type: cell-based, human; conditions: MCF-7 Cells
Protocol: as §1
Inhibition of ^3 H-TdR incorporation into A375 cells and MCF-7 cells were compared using the assay described in Example 1B, above. The cells were treated with either Oncostatin M alone, TNF-α (Amgen Biologicals, human recombinant TNF-α) alone, or with a combination of Oncostatin M and TNF-α.

[1] = biological target: T1, Oncostatin M receptor on A375 or A549 cells; assay: Specificity of Oncostatin M receptor: competition for binding of 125I-Oncostatin M; conditions: competitor 20 μg/ml; 125I-Oncostatin M 30-50 ng/ml
Protocol: The cell line of interest was plated in 48-well plates at a density of 2×10^5 cells/well and maintained at 37° C. for 16-24 hours before initiation of the assay. Cell monolayers were then washed once with Binding buffer (Linsley et al., Biochemistry (1986) 25:2978-2986). To measure total binding, ^125 I-Oncostatin M was added at concentrations ranging from 0.5-100 ng/ml. To measure non-specific binding, unlabeled Oncostatin M was added simultaneously with the ^125 I-Oncostatin M to replicate plates at a concentration 20- to 100-fold higher than the concentration of ^125 I-Oncostatin M. Binding was allowed to proceed for 2-5 hours at 23°, then the monolayers were washed four times with Binding Buffer, cell-bound radioactivity was solubilized with 1N NaOH and was counted in a gamma counter. Specific binding was calculated by subtracting the non-specific binding from total binding. The dissociation constant (Kd) and binding capacity was determined by Scatchard analysis (Scatchard, Ann. N.Y. Acad. Sci. (1949) 51:660).
The specificity of the Oncostatin M receptor was determined by evaluating the ability of several other polypeptide growth factors to compete for binding of ^125 I-Oncostatin M (at 30-50 ng/ml) to A375 or A549 cells.

Mouse L929 cells = assay: Effect on mouse L929 cells; assay type: cell-based; conditions: up to 1000 GIA units/ml
Protocol: (§2) The ability of PBL-derived Oncostatin M to affect replication of a variety of cells was also investigated. Mouse L929 cells were insenstive to PBL-derived Oncostatin M using up to 1000 GIA units/ml. Growth of human fibroblasts, WI26, was stimulated by treatment with 1000 GIA units/ml. Normal human T-lymphocyte proliferation at 72 hours post mitogenesis was not affected by up to 500 GIA units/ml.

WI26 fibroblasts = assay: Cell growth modulatory assay using 3H-thymidine incorporation into DNA (GIA); assay type: cell-based, human; conditions: 1000 GIA units/ml
Protocol: as §1
Human tumor cells (A375 melanoma cells, A549 lung cancer cells, HBT10 neuroblastoma cells, and SK-MEL28 melanoma cells) were seeded at 3×10^3 cells/well and normal fibroblasts (WI26 cells and WI38 cells) at 1.5×10^3 cells/well in 96-well plates. Various concentrations of purified Oncostatin M, obtained from the fraction from the C18^3 column with peak antiproliferative activity against A375 cells were used. The assay was performed as described in Example 1B above.

[2] = system: Normal human T-lymphocyte; assay: Normal human T-lymphocyte proliferation post mitogenesis; assay type: cell-based; conditions: 72 hours post mitogenesis, up to 500 GIA units/ml
Protocol: as §2

Molecule	Observed % Inhibition of 3H-TdR Incorporation (A375 melanoma cells) [%]	Observed % Inhibition of 3H-TdR Incorporation (MCF-7 breast tumor cells) [%]	Inhibitory activity towards binding of 125I-Oncostatin M [1]	Replication of mouse L929 cells (Mouse L929 cells)	Growth of human fibroblasts WI26 (WI26 fibroblasts)	Normal human T-lymphocyte proliferation [2]
TNF-α	7	30	None of these showed significant inhibitory activity			
B1				insenstive	stimulated	not affected
